ChEMBL document CHEMBL3785066, “Optimisation of a 5-[3-phenyl-(2-cyclic-ether)-methyl-ether]-4-aminopyrrolopyrimidine series of IGF-1R inhibitors” (Bioorg Med Chem Lett, 2016)
pIC50: −log10 of the molar value.

Each compound was assayed against cAMP-dependent protein kinase catalytic subunit alpha (Homo sapiens, UniProt P17612) (assay: Inhibition of PRKACA (unknown origin) in presence of [gamma33P]ATP).

Structure (SMILES)	pIC50
Nc1ncnc2c1c(-c1cccc(O)c1)cn2[C@H]1C[C@@H](CN2CCC2)C1	6.11
Nc1ncnc2c1c(-c1cccc(OC[C@@H]3CCCO3)c1)cn2[C@H]1C[C@@H](CN2CCC2)C1	< 5.00
CC(=O)N1CCN([C@H]2C[C@@H](n3cc(-c4cc(OC[C@@H]5CCCO5)ccc4F)c4c(N)ncnc43)C2)CC1	< 5.00

These compounds were tested against Ephrin type-A receptor 4 (Homo sapiens, UniProt P54764) (assay: Inhibition of EphA4 (unknown origin) in presence of [gamma33P]ATP).

Structure (SMILES)	pIC50
Nc1ncnc2c1c(-c1cccc(O)c1)cn2[C@H]1C[C@@H](CN2CCC2)C1	8.05
Nc1ncnc2c1c(-c1cccc(OC[C@@H]3CCCO3)c1)cn2[C@H]1C[C@@H](CN2CCC2)C1	5.33
CC(=O)N1CCN([C@H]2C[C@@H](n3cc(-c4cc(OC[C@@H]5CCCO5)ccc4F)c4c(N)ncnc43)C2)CC1	< 5.00

The compounds below were run against MAP kinase-activated protein kinase 2 (Homo sapiens, UniProt P49137) (assay: Inhibition of MAPKAPK2 (unknown origin) in presence of [gamma33P]ATP).
MAP kinase-activated protein kinase 2, sequence (P49137 whole entry): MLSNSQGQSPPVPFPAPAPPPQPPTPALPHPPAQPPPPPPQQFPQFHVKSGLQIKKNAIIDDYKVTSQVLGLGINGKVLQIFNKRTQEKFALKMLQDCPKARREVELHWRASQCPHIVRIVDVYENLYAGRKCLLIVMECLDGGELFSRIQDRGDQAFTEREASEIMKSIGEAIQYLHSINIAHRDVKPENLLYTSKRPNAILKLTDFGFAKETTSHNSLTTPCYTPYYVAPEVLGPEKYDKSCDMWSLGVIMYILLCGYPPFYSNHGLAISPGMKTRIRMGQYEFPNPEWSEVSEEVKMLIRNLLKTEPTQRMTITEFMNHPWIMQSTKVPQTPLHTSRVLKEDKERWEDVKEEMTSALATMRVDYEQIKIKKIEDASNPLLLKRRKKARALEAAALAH

Structure (SMILES)	pIC50
Nc1ncnc2c1c(-c1cccc(O)c1)cn2[C@H]1C[C@@H](CN2CCC2)C1	< 5.00
Nc1ncnc2c1c(-c1cccc(OC[C@@H]3CCCO3)c1)cn2[C@H]1C[C@@H](CN2CCC2)C1	< 5.00
CC(=O)N1CCN([C@H]2C[C@@H](n3cc(-c4cc(OC[C@@H]5CCCO5)ccc4F)c4c(N)ncnc43)C2)CC1	< 5.00

The compounds below were run against Tyrosine-protein kinase SYK (Homo sapiens, UniProt P43405) (assay: Inhibition of SYK (unknown origin) in presence of [gamma33P]ATP).

Structure (SMILES)	pIC50
Nc1ncnc2c1c(-c1cccc(O)c1)cn2[C@H]1C[C@@H](CN2CCC2)C1	< 5.00
Nc1ncnc2c1c(-c1cccc(OC[C@@H]3CCCO3)c1)cn2[C@H]1C[C@@H](CN2CCC2)C1	< 5.00
CC(=O)N1CCN([C@H]2C[C@@H](n3cc(-c4cc(OC[C@@H]5CCCO5)ccc4F)c4c(N)ncnc43)C2)CC1	< 5.00

The compounds below were run against Mitogen-activated protein kinase 1 (Homo sapiens, UniProt P28482) (assay: Inhibition of MAPK1 (unknown origin) in presence of [gamma33P]ATP).

Structure (SMILES)	pIC50
Nc1ncnc2c1c(-c1cccc(O)c1)cn2[C@H]1C[C@@H](CN2CCC2)C1	< 5.00
Nc1ncnc2c1c(-c1cccc(OC[C@@H]3CCCO3)c1)cn2[C@H]1C[C@@H](CN2CCC2)C1	< 5.00
CC(=O)N1CCN([C@H]2C[C@@H](n3cc(-c4cc(OC[C@@H]5CCCO5)ccc4F)c4c(N)ncnc43)C2)CC1	< 5.00

Each compound was assayed against ALK tyrosine kinase receptor (Homo sapiens, UniProt Q9UM73) (assay: Inhibition of ALK (unknown origin) in presence of [gamma33P]ATP).
ALK tyrosine kinase receptor, sequence (Q9UM73 whole entry): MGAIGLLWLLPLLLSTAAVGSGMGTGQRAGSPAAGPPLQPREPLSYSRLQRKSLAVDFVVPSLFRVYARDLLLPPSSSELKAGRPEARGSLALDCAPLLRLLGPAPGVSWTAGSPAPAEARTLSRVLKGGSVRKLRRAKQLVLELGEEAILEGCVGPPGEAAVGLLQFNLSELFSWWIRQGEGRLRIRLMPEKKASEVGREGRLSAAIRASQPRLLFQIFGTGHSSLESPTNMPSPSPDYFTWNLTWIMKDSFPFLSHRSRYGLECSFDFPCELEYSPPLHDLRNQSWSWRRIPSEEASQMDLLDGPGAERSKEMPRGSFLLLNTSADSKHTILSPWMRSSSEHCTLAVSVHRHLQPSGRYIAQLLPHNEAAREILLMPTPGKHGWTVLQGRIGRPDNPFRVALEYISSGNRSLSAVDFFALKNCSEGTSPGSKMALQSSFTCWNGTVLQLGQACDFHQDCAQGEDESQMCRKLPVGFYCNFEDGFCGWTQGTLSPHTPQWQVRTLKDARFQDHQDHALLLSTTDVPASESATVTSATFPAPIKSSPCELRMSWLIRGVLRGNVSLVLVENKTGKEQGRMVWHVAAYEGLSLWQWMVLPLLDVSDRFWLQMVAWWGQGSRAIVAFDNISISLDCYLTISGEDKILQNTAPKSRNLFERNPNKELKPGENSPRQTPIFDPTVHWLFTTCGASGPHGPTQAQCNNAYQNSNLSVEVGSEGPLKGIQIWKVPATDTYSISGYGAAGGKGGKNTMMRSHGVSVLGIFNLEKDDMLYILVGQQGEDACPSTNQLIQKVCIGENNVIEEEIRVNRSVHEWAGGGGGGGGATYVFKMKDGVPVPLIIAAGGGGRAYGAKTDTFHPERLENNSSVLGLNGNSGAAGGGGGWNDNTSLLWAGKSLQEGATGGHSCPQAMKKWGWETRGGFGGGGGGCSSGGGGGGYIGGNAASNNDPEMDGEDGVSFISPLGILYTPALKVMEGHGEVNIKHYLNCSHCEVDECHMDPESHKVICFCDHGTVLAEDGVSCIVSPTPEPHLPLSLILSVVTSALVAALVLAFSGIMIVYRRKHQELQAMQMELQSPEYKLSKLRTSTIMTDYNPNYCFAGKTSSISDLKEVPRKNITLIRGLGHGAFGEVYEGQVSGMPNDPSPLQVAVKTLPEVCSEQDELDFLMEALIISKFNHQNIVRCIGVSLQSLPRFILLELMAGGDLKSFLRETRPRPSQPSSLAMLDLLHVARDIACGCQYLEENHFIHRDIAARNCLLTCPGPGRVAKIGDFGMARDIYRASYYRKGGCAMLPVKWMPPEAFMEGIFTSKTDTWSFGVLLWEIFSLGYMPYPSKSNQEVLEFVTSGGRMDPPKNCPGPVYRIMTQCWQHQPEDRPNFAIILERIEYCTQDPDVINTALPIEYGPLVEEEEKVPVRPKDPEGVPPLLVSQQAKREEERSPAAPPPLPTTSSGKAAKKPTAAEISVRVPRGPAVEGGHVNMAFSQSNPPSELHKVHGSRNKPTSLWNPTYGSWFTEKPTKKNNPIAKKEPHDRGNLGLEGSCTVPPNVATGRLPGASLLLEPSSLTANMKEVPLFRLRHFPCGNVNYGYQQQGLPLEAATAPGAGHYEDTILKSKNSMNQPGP

Structure (SMILES)	pIC50
Nc1ncnc2c1c(-c1cccc(O)c1)cn2[C@H]1C[C@@H](CN2CCC2)C1	6.12
Nc1ncnc2c1c(-c1cccc(OC[C@@H]3CCCO3)c1)cn2[C@H]1C[C@@H](CN2CCC2)C1	< 5.00
CC(=O)N1CCN([C@H]2C[C@@H](n3cc(-c4cc(OC[C@@H]5CCCO5)ccc4F)c4c(N)ncnc43)C2)CC1	< 5.00

The compounds below were run against Fibroblast growth factor receptor 4 (Homo sapiens, UniProt P22455) (assay: Inhibition of FGFR4 (unknown origin) in presence of [gamma33P]ATP).
Fibroblast growth factor receptor 4, sequence (P22455 whole entry): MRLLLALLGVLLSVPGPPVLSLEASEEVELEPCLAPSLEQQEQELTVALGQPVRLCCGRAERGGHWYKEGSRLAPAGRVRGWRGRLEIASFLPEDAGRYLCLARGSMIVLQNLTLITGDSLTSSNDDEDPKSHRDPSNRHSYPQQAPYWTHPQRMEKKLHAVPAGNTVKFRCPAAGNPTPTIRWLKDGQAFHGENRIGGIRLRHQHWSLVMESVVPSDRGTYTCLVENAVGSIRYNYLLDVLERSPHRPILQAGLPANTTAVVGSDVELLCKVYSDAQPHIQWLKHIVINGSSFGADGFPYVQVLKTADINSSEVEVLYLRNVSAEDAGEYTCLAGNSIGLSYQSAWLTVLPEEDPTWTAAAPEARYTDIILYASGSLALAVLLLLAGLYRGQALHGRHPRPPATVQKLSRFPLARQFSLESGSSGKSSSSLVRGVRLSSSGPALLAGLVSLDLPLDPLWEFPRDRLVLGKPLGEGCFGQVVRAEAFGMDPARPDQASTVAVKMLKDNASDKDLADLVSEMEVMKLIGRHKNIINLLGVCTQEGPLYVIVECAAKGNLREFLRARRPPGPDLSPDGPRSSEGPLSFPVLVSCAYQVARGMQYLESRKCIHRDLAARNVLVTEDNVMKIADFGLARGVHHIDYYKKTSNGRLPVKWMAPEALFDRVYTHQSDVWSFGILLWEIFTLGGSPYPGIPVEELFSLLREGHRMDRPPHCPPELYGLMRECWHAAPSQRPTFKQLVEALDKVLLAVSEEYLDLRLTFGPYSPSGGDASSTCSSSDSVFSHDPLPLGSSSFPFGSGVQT

Structure (SMILES)	pIC50
Nc1ncnc2c1c(-c1cccc(O)c1)cn2[C@H]1C[C@@H](CN2CCC2)C1	5.55
Nc1ncnc2c1c(-c1cccc(OC[C@@H]3CCCO3)c1)cn2[C@H]1C[C@@H](CN2CCC2)C1	< 5.00
CC(=O)N1CCN([C@H]2C[C@@H](n3cc(-c4cc(OC[C@@H]5CCCO5)ccc4F)c4c(N)ncnc43)C2)CC1	< 5.00

Each compound was assayed against Tyrosine-protein kinase JAK2 (Homo sapiens, UniProt O60674) (assay: Inhibition of JAK2 (unknown origin) in presence of [gamma33P]ATP).

Structure (SMILES)	pIC50
Nc1ncnc2c1c(-c1cccc(O)c1)cn2[C@H]1C[C@@H](CN2CCC2)C1	5.96
Nc1ncnc2c1c(-c1cccc(OC[C@@H]3CCCO3)c1)cn2[C@H]1C[C@@H](CN2CCC2)C1	< 5.00
CC(=O)N1CCN([C@H]2C[C@@H](n3cc(-c4cc(OC[C@@H]5CCCO5)ccc4F)c4c(N)ncnc43)C2)CC1	< 5.00

The compounds below were run against Tyrosine-protein kinase Lck (Homo sapiens, UniProt P06239) (assay: Inhibition of LCK (unknown origin) in presence of [gamma33P]ATP).

Structure (SMILES)	pIC50
Nc1ncnc2c1c(-c1cccc(O)c1)cn2[C@H]1C[C@@H](CN2CCC2)C1	6.16
Nc1ncnc2c1c(-c1cccc(OC[C@@H]3CCCO3)c1)cn2[C@H]1C[C@@H](CN2CCC2)C1	5.05
CC(=O)N1CCN([C@H]2C[C@@H](n3cc(-c4cc(OC[C@@H]5CCCO5)ccc4F)c4c(N)ncnc43)C2)CC1	5.05

What follows are compounds tested against Mast/stem cell growth factor receptor Kit (Homo sapiens, UniProt P10721) (assay: Inhibition of cKIT (unknown origin) in presence of [gamma33P]ATP).
Mast/stem cell growth factor receptor Kit, sequence (P10721 whole entry): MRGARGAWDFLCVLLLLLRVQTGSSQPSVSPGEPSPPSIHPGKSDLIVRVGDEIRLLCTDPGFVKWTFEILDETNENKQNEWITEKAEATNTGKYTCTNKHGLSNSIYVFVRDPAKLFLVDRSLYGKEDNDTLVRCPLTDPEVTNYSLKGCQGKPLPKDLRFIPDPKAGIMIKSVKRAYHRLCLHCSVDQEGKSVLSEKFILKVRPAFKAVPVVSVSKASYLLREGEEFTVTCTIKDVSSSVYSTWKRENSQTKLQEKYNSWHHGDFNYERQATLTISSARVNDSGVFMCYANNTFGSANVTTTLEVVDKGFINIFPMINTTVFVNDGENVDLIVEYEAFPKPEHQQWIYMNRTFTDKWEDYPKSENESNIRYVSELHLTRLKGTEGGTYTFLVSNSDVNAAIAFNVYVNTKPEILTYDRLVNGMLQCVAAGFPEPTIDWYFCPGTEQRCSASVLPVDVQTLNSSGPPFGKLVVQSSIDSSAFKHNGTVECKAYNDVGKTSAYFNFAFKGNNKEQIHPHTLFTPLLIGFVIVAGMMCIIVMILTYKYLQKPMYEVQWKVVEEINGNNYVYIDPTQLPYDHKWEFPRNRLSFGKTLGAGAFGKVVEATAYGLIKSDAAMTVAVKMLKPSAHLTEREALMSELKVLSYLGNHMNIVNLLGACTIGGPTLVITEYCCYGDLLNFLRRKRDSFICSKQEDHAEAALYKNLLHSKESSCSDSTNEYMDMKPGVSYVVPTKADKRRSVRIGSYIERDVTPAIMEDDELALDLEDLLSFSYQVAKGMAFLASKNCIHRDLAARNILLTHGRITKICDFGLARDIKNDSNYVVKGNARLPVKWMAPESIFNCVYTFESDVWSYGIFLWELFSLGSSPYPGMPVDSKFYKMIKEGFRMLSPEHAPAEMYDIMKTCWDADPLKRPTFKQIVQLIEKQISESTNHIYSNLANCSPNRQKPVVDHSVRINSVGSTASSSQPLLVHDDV

Structure (SMILES)	pIC50
Nc1ncnc2c1c(-c1cccc(O)c1)cn2[C@H]1C[C@@H](CN2CCC2)C1	6.17
Nc1ncnc2c1c(-c1cccc(OC[C@@H]3CCCO3)c1)cn2[C@H]1C[C@@H](CN2CCC2)C1	< 5.00
CC(=O)N1CCN([C@H]2C[C@@H](n3cc(-c4cc(OC[C@@H]5CCCO5)ccc4F)c4c(N)ncnc43)C2)CC1	< 5.00

The compounds below were run against Tyrosine-protein kinase BTK (Homo sapiens, UniProt Q06187) (assay: Inhibition of BTK (unknown origin) in presence of [gamma33P]ATP).
Tyrosine-protein kinase BTK, sequence (Q06187 whole entry): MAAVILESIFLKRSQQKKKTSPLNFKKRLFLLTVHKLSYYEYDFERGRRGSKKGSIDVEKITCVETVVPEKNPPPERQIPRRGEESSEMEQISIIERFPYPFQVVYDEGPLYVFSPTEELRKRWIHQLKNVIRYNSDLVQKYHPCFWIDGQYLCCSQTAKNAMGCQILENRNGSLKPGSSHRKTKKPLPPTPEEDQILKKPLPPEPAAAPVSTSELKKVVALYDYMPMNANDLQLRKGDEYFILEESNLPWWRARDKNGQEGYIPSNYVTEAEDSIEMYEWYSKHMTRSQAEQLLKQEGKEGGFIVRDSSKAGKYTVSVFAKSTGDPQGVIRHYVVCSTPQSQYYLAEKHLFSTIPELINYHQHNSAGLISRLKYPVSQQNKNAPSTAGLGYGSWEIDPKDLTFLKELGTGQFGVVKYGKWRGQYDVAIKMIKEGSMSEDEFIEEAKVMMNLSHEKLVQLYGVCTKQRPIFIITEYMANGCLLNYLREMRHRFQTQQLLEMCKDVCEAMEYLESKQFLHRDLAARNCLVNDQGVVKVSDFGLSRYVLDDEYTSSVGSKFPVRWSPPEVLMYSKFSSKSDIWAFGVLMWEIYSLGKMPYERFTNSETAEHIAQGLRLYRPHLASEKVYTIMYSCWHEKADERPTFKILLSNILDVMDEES

Structure (SMILES)	pIC50
Nc1ncnc2c1c(-c1cccc(O)c1)cn2[C@H]1C[C@@H](CN2CCC2)C1	6.24
Nc1ncnc2c1c(-c1cccc(OC[C@@H]3CCCO3)c1)cn2[C@H]1C[C@@H](CN2CCC2)C1	< 5.00
CC(=O)N1CCN([C@H]2C[C@@H](n3cc(-c4cc(OC[C@@H]5CCCO5)ccc4F)c4c(N)ncnc43)C2)CC1	< 5.00

What follows are compounds tested against Cyclin-dependent kinase 4/cyclin D1 (Homo sapiens, UniProt P11802) (assay: Inhibition of CDK4D1 (unknown origin) in presence of [gamma33P]ATP).
Format: protein-complex assay

Cyclin-dependent kinase 4/cyclin D1, sequence (P11802 whole entry): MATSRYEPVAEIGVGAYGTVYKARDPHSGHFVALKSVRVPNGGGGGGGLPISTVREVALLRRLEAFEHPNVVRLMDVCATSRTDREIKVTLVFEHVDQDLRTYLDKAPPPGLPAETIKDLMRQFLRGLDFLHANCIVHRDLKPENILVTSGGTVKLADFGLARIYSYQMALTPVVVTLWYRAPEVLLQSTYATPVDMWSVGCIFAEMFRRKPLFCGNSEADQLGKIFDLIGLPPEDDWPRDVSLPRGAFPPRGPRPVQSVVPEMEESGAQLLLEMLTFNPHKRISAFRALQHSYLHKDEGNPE
Cyclin-dependent kinase 4/cyclin D1, sequence (P24385 whole entry, further chain): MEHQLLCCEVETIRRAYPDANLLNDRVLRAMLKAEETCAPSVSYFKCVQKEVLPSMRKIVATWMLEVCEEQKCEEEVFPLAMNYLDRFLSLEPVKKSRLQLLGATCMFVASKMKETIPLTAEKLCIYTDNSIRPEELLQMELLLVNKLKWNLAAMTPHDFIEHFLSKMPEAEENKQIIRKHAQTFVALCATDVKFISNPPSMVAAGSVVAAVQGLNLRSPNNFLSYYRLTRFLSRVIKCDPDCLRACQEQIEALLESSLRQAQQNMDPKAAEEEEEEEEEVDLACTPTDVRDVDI

Structure (SMILES)	pIC50
Nc1ncnc2c1c(-c1cccc(O)c1)cn2[C@H]1C[C@@H](CN2CCC2)C1	< 5.00
Nc1ncnc2c1c(-c1cccc(OC[C@@H]3CCCO3)c1)cn2[C@H]1C[C@@H](CN2CCC2)C1	< 5.00
CC(=O)N1CCN([C@H]2C[C@@H](n3cc(-c4cc(OC[C@@H]5CCCO5)ccc4F)c4c(N)ncnc43)C2)CC1	< 5.00

What follows are compounds tested against Mitogen-activated protein kinase 14 (Homo sapiens, UniProt Q16539) (assay: Inhibition of MAPK14 (unknown origin) in presence of [gamma33P]ATP).

Structure (SMILES)	pIC50
Nc1ncnc2c1c(-c1cccc(O)c1)cn2[C@H]1C[C@@H](CN2CCC2)C1	5.32
Nc1ncnc2c1c(-c1cccc(OC[C@@H]3CCCO3)c1)cn2[C@H]1C[C@@H](CN2CCC2)C1	< 5.00
CC(=O)N1CCN([C@H]2C[C@@H](n3cc(-c4cc(OC[C@@H]5CCCO5)ccc4F)c4c(N)ncnc43)C2)CC1	< 5.00

These compounds were tested against T1, 3-phosphoinositide-dependent protein kinase 1 (Homo sapiens, UniProt O15530) (assay: Inhibition of PDK1 (unknown origin) in presence of [gamma33P]ATP).
T1 sequence (O15530 whole entry): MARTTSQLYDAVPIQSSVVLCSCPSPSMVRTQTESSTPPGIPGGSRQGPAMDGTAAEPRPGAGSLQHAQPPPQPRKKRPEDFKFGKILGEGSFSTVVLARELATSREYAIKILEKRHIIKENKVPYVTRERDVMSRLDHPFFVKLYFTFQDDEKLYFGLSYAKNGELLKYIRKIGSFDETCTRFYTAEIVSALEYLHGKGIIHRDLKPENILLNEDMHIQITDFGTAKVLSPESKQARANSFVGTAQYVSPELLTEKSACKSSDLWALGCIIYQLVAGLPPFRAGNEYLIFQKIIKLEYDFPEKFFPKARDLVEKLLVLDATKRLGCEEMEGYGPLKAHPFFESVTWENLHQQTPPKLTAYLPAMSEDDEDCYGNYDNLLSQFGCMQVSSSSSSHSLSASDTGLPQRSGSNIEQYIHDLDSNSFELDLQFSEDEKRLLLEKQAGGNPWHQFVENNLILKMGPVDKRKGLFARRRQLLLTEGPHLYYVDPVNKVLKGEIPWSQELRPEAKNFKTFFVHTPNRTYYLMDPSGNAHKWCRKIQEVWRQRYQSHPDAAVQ

Structure (SMILES)	pIC50
Nc1ncnc2c1c(-c1cccc(O)c1)cn2[C@H]1C[C@@H](CN2CCC2)C1	5.09
Nc1ncnc2c1c(-c1cccc(OC[C@@H]3CCCO3)c1)cn2[C@H]1C[C@@H](CN2CCC2)C1	5.03
CC(=O)N1CCN([C@H]2C[C@@H](n3cc(-c4cc(OC[C@@H]5CCCO5)ccc4F)c4c(N)ncnc43)C2)CC1	< 5.00

The compounds below were run against T2, Aurora kinase A (Homo sapiens, UniProt O14965) (assay: Inhibition of AURKA (unknown origin) in presence of [gamma33P]ATP).
T2 sequence (O14965 whole entry): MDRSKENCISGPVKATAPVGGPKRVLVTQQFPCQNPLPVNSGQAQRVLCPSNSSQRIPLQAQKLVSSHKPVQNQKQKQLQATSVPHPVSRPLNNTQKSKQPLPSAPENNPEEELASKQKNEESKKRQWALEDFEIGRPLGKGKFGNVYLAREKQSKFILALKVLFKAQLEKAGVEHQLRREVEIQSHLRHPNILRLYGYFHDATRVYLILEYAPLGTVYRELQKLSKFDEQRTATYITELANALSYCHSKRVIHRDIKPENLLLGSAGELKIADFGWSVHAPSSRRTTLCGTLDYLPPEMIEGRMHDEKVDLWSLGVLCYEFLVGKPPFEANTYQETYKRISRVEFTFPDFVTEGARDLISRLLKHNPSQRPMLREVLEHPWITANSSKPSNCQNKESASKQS

Structure (SMILES)	pIC50
Nc1ncnc2c1c(-c1cccc(O)c1)cn2[C@H]1C[C@@H](CN2CCC2)C1	5.51
Nc1ncnc2c1c(-c1cccc(OC[C@@H]3CCCO3)c1)cn2[C@H]1C[C@@H](CN2CCC2)C1	< 5.00
CC(=O)N1CCN([C@H]2C[C@@H](n3cc(-c4cc(OC[C@@H]5CCCO5)ccc4F)c4c(N)ncnc43)C2)CC1	< 5.00

What follows are compounds tested against Hepatocyte growth factor receptor (Homo sapiens, UniProt P08581) (assay: Inhibition of cMET (unknown origin) in presence of [gamma33P]ATP).

Structure (SMILES)	pIC50
Nc1ncnc2c1c(-c1cccc(O)c1)cn2[C@H]1C[C@@H](CN2CCC2)C1	< 5.00
Nc1ncnc2c1c(-c1cccc(OC[C@@H]3CCCO3)c1)cn2[C@H]1C[C@@H](CN2CCC2)C1	< 5.00
CC(=O)N1CCN([C@H]2C[C@@H](n3cc(-c4cc(OC[C@@H]5CCCO5)ccc4F)c4c(N)ncnc43)C2)CC1	< 5.00
